Reference: article PMC3419577 (The Journal of neuroscience : the official journal of the …, 2012)

Tested on: cells in posterior cortex (V1), fresh frozen sections
Assay: Binding of AP-fusion proteins on fresh-frozen brain sections
Parameters: species or system mouse
Settings: AP staining, competitor with AP-NtHD

Full-length Otx2: non-tagged, full-length Otx2 used as competitor
competition of AP-NtHD binding: disrupts AP-NtHD cortical binding
